The NIST ThermoML archive (doi:10.1016/j.jct.2013.02.023)
Values joined by “and” are separate entries in the source; they are usually repeats but may differ in a detail not shown here. Equal values may be shown once. Numbers after ± are expanded uncertainties.

Test: molar heat capacity at constant pressure
Conditions: 101.33 kPa, relaxation calorimetry - Quantum Design PPMS

O=P([O-])([O-])OP(=O)([O-])[O-].O=P([O-])([O-])OP(=O)([O-])[O-].O=P([O-])([O-])OP(=O)([O-])[O-].[Fe+3].[Fe+3].[Fe+3].[Fe+3] [iron(III) diphosphate]
molar heat capacity at constant pressure
Conditions	Crystal 2	Crystal 3
1 K	–	0.08105 ± 0.0086 J/K/mol
1.909 K	–	0.1843 ± 0.019 J/K/mol
2 K	–	0.2057 ± 0.021 J/K/mol
2.045 K	–	0.2088 ± 0.021 J/K/mol
2.21 K	–	0.2418 ± 0.025 J/K/mol
2.506 K	–	0.3014 ± 0.03 J/K/mol
2.763 K	–	0.3632 ± 0.037 J/K/mol
3 K	–	0.4233 ± 0.044 J/K/mol
3.058 K	–	0.4449 ± 0.045 J/K/mol
3.392 K	–	0.553 ± 0.056 J/K/mol
3.803 K	–	0.7103 ± 0.072 J/K/mol
4 K	–	0.8002 ± 0.082 J/K/mol
4.207 K	–	0.9081 ± 0.091 J/K/mol
4.685 K	–	1.188 ± 0.12 J/K/mol
5 K	–	1.41 ± 0.14 J/K/mol
5.203 K	–	1.56 ± 0.16 J/K/mol
5.797 K	–	2.097 ± 0.21 J/K/mol
6 K	–	2.314 ± 0.24 J/K/mol
6.489 K	–	2.871 ± 0.29 J/K/mol
7 K	–	3.559 ± 0.36 J/K/mol
7.172 K	–	3.81 ± 0.38 J/K/mol
7.975 K	–	5.084 ± 0.51 J/K/mol
8 K	–	5.127 ± 0.52 J/K/mol
8.875 K	–	6.71 ± 0.67 J/K/mol
9 K	–	6.952 ± 0.71 J/K/mol
10 K	–	9.006 ± 0.22 J/K/mol
10.03 K	–	9.074 ± 0.91 J/K/mol
11 K	–	11.23 ± 0.27 J/K/mol
11.16 K	–	11.61 ± 1.2 J/K/mol
12 K	–	13.56 ± 0.33 J/K/mol
12.39 K	–	14.49 ± 1.4 J/K/mol
13 K	–	15.98 ± 0.39 J/K/mol
13.77 K	–	17.87 ± 1.8 J/K/mol
14 K	–	18.43 ± 0.45 J/K/mol
15 K	–	20.84 ± 0.5 J/K/mol
15.31 K	–	21.61 ± 2.2 J/K/mol
16 K	–	23.37 ± 0.56 J/K/mol
17 K	–	26.01 ± 2.6 J/K/mol and 26.02 ± 0.63 J/K/mol
18 K	–	28.75 ± 0.69 J/K/mol
18.85 K	–	31.22 ± 3.1 J/K/mol
19 K	–	31.74 ± 3.2 J/K/mol and 31.7 ± 0.76 J/K/mol
19.52 K	–	33.09 ± 3.3 J/K/mol
20 K	–	34.42 ± 0.83 J/K/mol
20.61 K	–	36.2 ± 3.6 J/K/mol
20.9 K	–	37.11 ± 3.7 J/K/mol
21.09 K	–	37.43 ± 3.7 J/K/mol
21.6 K	–	38.93 ± 3.9 J/K/mol
21.81 K	–	39.43 ± 3.9 J/K/mol
22.11 K	–	40.45 ± 0.81 J/K/mol
22.85 K	–	42.81 ± 0.86 J/K/mol
23.25 K	–	44.02 ± 0.88 J/K/mol
23.87 K	–	46 ± 0.92 J/K/mol
23.89 K	–	46.12 ± 0.93 J/K/mol
24.08 K	–	46.85 ± 0.94 J/K/mol
24.28 K	–	47.45 ± 0.95 J/K/mol
24.47 K	–	48.12 ± 0.96 J/K/mol
24.67 K	–	48.81 ± 0.98 J/K/mol
24.88 K	–	49.5 ± 0.99 J/K/mol
25 K	–	49.88 ± 1.2 J/K/mol
25.08 K	–	50.12 ± 1 J/K/mol
25.28 K	–	50.75 ± 1 J/K/mol
25.47 K	–	51.26 ± 1 J/K/mol
25.67 K	–	51.84 ± 1 J/K/mol
25.81 K	–	52.19 ± 1 J/K/mol
25.87 K	–	52.46 ± 1.1 J/K/mol
26.07 K	–	53.07 ± 1.1 J/K/mol
26.27 K	–	53.83 ± 1.1 J/K/mol
26.48 K	–	54.56 ± 1.1 J/K/mol
26.69 K	–	55.35 ± 1.1 J/K/mol
26.9 K	–	56.09 ± 1.1 J/K/mol
27.11 K	–	56.75 ± 1.1 J/K/mol
27.3 K	57.27 ± 1.4 J/K/mol	57.27 ± 1.4 J/K/mol
27.32 K	57.27 ± 1.1 J/K/mol	–
27.52 K	56.92 ± 1.1 J/K/mol	–
27.7 K	56.9 ± 1.1 J/K/mol	–
27.91 K	56.91 ± 1.1 J/K/mol	–
28.04 K	57.08 ± 1.1 J/K/mol	–
28.11 K	57.21 ± 1.1 J/K/mol	–
28.31 K	57.58 ± 1.2 J/K/mol	–
28.53 K	58.14 ± 1.2 J/K/mol	–
28.63 K	58.29 ± 1.2 J/K/mol	–
28.71 K	58.58 ± 1.2 J/K/mol	–
28.91 K	59.09 ± 1.2 J/K/mol	–
28.99 K	59.36 ± 1.2 J/K/mol	–
29.12 K	59.63 ± 1.2 J/K/mol	–
29.32 K	60.15 ± 1.2 J/K/mol	–
29.52 K	60.68 ± 1.2 J/K/mol	–
30 K	62 ± 1.5 J/K/mol	–
30.01 K	62.04 ± 1.2 J/K/mol	–
30.53 K	63.41 ± 1.3 J/K/mol	–
31.05 K	65.12 ± 1.3 J/K/mol	–
31.57 K	66.61 ± 1.3 J/K/mol	–
31.8 K	67.25 ± 1.3 J/K/mol	–
32.07 K	68.15 ± 1.4 J/K/mol	–
32.58 K	69.63 ± 1.4 J/K/mol	–
33.05 K	71.25 ± 1.4 J/K/mol	–
33.6 K	73.01 ± 1.5 J/K/mol	–
34.1 K	74.7 ± 1.5 J/K/mol	–
34.61 K	76.5 ± 1.5 J/K/mol	–
35 K	77.84 ± 1.9 J/K/mol	–
35.09 K	78.15 ± 1.6 J/K/mol	–
35.33 K	78.91 ± 1.6 J/K/mol	–
35.63 K	80.11 ± 1.6 J/K/mol	–
36.09 K	81.71 ± 1.6 J/K/mol	–
36.62 K	83.72 ± 1.7 J/K/mol	–
37.1 K	85.44 ± 1.7 J/K/mol	–
37.66 K	87.47 ± 1.8 J/K/mol	–
38.15 K	89.5 ± 1.8 J/K/mol	–
38.62 K	91.24 ± 1.8 J/K/mol	–
39.17 K	93.41 ± 1.9 J/K/mol	–
39.24 K	93.52 ± 1.9 J/K/mol	–
39.64 K	95.31 ± 1.9 J/K/mol	–
40 K	96.72 ± 2.3 J/K/mol	–
40.17 K	97.41 ± 1.9 J/K/mol	–
40.66 K	99.59 ± 2 J/K/mol	–
41.19 K	101.8 ± 2 J/K/mol	–
41.66 K	103.8 ± 2.1 J/K/mol	–
42.22 K	106.31 ± 2.1 J/K/mol	–
42.39 K	107.06 ± 2.1 J/K/mol	–
42.6 K	108.05 ± 2.2 J/K/mol	–
42.8 K	108.92 ± 2.2 J/K/mol	–
43 K	109.89 ± 2.2 J/K/mol	–
43.2 K	110.79 ± 2.2 J/K/mol	–
43.41 K	111.83 ± 2.2 J/K/mol	–
43.59 K	112.41 ± 2.2 J/K/mol	–
43.6 K	112.72 ± 2.3 J/K/mol	–
43.8 K	113.72 ± 2.3 J/K/mol	–
44.01 K	114.89 ± 2.3 J/K/mol	–
44.2 K	115.83 ± 2.3 J/K/mol	–
44.41 K	116.9 ± 2.3 J/K/mol	–
44.61 K	118.08 ± 2.4 J/K/mol	–
44.81 K	119.19 ± 2.4 J/K/mol	–
45 K	120.36 ± 2.9 J/K/mol	–
45.02 K	120.42 ± 2.4 J/K/mol	–
45.22 K	121.8 ± 2.4 J/K/mol	–
